Tests used:
houseflies = experiment: Laboratory sticky trap bioassay of spatial repellency with egg powder attractant; type: in vivo, housefly (Musca domestica); conditions: for female house flies per trap / male house flies per trap: egg powder plus repellent; for repellency against houseflies, in words: laboratory trap bioassay with egg powder attractant
Procedure: Laboratory bioassay tests were carried out to investigate the efficacy of some of the EAD-active compounds described above to act as spatial repellents against several insects. The procedure for the bioassay tests is described in Example 2 below. Briefly stated, the bioassay included using egg powder (EP) as an attractant for flies, while the compound whose insect repellency was being tested was placed in proximity to the egg powder. In FIGS. 11-13, the bioassay was carried out on houseflies using devices known by the designation Trécé Pherocon® VI sticky traps.
The following lab bioassay tests were employed to illustrate the efficacy of the compounds to effectively act as spatial repellents for flies. Three sets of tests were conducted in a fly testing room (23° C., 70% RH, and 12/12 (L/D) light regime illuminated by fluorescent lights). Two sets of tests were carried out using Trécé Pherocon® VI traps with sticky inserts, which were set up on poles evenly spaced on a rotating table. The traps were ca. 1 m above a table surface, and ca. 1 m apart from each other. Two grams of egg powder in a white cap (4 cm in diameter, 0.5 cm in height) used as an attractant was put on the center of the sticky insert in the sticky trap. The potential repellent candidate chemicals were loaded into polyethylene bags, and were hung under the inner roof of the traps, 1-1.5 cm above the egg powder attractant. A control had the empty white cap and blank polyethylene bag, while the positive control had only the egg powder and an empty polyethylene bag. The test table was rotated 1.5 r.p.h. […] About 200-300 houseflies (2-3 days old) were released into the testing room for each test. Tests were normally run from 8:00 am to 5:00 pm, and the numbers of houseflies caught in each trap were counted after each test. The results of these tests are shown in FIGS. 11-13 and described above.

Anopheles stephensi = experiment: Y-tube olfactometer behavioral bioassay (spatial repellency); type: in vivo; conditions: for Number of mosquitoes in each arm: Repellent / Number of mosquitoes in each arm: Blank / Number of mosquitoes in each arm: Bottom: Anopheles stephensi females; for SAI (Spatial Activity Index): Anopheles stephensi
Summary of the method: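 Female insects (25-40 per run; mosquitoes 6-10 days old, sand flies 3-10 days) released into a CO2-baited Y-tube holding a treatment dispenser in one arm and a blank in the other; arm counts taken after 10 min at 23-25° C. Arms swapped in a repeat run; pooled data tested by χ2 (df=1).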

[1] = tested on: female antennae of sand fly Phlebotomus papatasi and mosquitoes Aedes aegypti, Anopheles gambiae, Anopheles stephensi; experiment: GC-EAD responses of sand fly and three mosquitoes to synthetic mixtures; conditions: about 100 ng of each compound, on one or more of the sand fly or the mosquitoes, FIGS. 9 and 10
Summary of the method: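 Female antennae recorded by GC-EAD (split with FID) against synthetic mixtures with about 100 ng of each compound, 1-octen-3-ol as positive control; polar Innowax column, 50° C 2 min then 10° C/min to 240° C. Effluent in humidified air at 0.5 liter/min over severed-head preparation with Ringer-filled electrodes.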

[2] = tested on: Aedes Aegypti, Anopheles stephensi and the sand fly P. papatasi; experiment: Y-tube bioassay, statements pooled for the three species; type: in vivo, Aedes aegypti; Anopheles stephensi; Phlebotomus papatasi; conditions: clove oil ca. 10 mg/day, patchouli oil 15 mg/d, sesquiterpenes 1 to 35 mg/d release
Procedure: Aegypti and An. stephensi, and one species of sand fly, P. papatasi. Both the mosquitoes and the sand flies used in the study were from colonies maintained at the Walter Reed Army Institute of Research, Department of Entomology, Silver Spring, Md. This Y-tube bioassay system, equipped with CO2-enriched air (ca. 1 l/min) as an attractant, was made from three clear acrylic tubes (4″ diameter; 12″ length) with symmetrical 120° angles among the three tube arms; and a screen butterfly valve on the top part of the bottom releasing tube. These spatial repellency tests were carried out during 8:00 am-12:00 pm (photophase) time period for Ae. aegypti and 1:00-5:00 pm (shifted scotophase) time period for the species of night-flying mosquitoes and sand fly in a temperature and humidity controlled testing room (23-25° C. and 20-40% RH). Female mosquitoes or sand flies were stored at ˜25-26° C., 50-89% RH, 12:12 hr. (L/D), fed with 10% sucrose solution before testing. The candidate chemical (individual or mixture) dispenser and a blank control were placed in the upper left or right arm of the Y-tube before releasing 25-40, 6 to 10 day-old female mosquitoes (or 3 to 10 day-old sand flies) into the bottom tube via a small hole. After a 30-60 sec acclimation period, the butterfly screen valve (door) on the top of the bottom tube was opened. After 10 min., the valve was closed and the numbers of mosquitoes or sand flies in each arm (including the bottom tube) were counted. In order to minimize the position effect, the same experiment was repeated once with the treatment and blank control arms shifted using a new (clean) Y-tube olfactometer and a new batch of mosquitoes/sand flies. Data from these two replicates were pooled for χ2 goodness of fit test (df=1) between the treatment and blank control.

[3] = FIG. 13, egg powder alone 76 females
[4] = FIG. 13, egg powder alone 95 males
[5] = release rate per chemical (1-60 mg/day; β-Caryophyllene 10 mg/day), 10 min
[6] = release rate per chemical (β-Caryophyllene 10 mg/day), 10 min
[7] = FIG. 12, egg powder alone 35 females
[8] = FIG. 12, egg powder alone 68 males

SMILES | female house flies per trap (houseflies; [3]) [house flies per trap] | male house flies per trap (houseflies; [4]) | repellency against houseflies, in words (houseflies) | Number of mosquitoes in each arm: Repellent (Anopheles stephensi; [5]) | Number of mosquitoes in each arm: Blank (Anopheles stephensi; [6]) | Number of mosquitoes in each arm: Bottom (Anopheles stephensi; [6]) | SAI (Spatial Activity Index) (Anopheles stephensi; β-Caryophyllene 10 mg/day) | GC-EAD antennal activity [1] | spatial repellency, in words [2] | number of house flies per trap (houseflies; egg powder attractant plus repellent, FIG. 11, egg powder alone 44) [house flies per trap] | female house flies per trap (houseflies; [7]) [house flies per trap] | male house flies per trap (houseflies; [8]) | Number of mosquitoes in each arm: Blank (Anopheles stephensi; release rate 35 mg/day, PE-Bag) | Number of mosquitoes in each arm: Bottom (Anopheles stephensi; release rate 35 mg/day, PE-Bag) | Number of mosquitoes in each arm: Repellent (Anopheles stephensi; release rate 35 mg/day, PE-Bag) | SAI (Spatial Activity Index) (Anopheles stephensi; release rate 35 mg/day)
C=C1C2CCC3[C@H]2C(C)(C)CCC[C@]13C (single isomer, unassigned; (+)) [(+)-Longifolene] | 4 | one | strongest repellent against houseflies | 9 | 23 | 29 | 0.44 | antennally active | showed spatial repellency effects | – | – | – | – | – | – | –
C=C1CC/C=C(\C)CC[C@@H]2[C@@H]1CC2(C)C [β-Caryophyllene, β-caryophyllene] | 10 | two | effective housefly repellents | 19 | 23 | 26 | 0.10 | antennally active | showed spatial repellency effects | 3.5 | 12 | six | 22 | 43 | 5 | 0.63
C=C1CC/C=C(/C)CC[C@@H]2[C@@H]1CC2(C)C [Isocaryophyllene, isocaryophyllene] | – | – | – | 8 | 21 | 26 | 0.45 | antennally active | showed spatial repellency effects | – | 15 | 14 house flies per trap | – | – | – | –
